# Experimental data reported in patent US11976057B2, “MrgX2 antagonists” (GlaxoSmithKline Intellectual Property Development Limited, priority 2020, dated 2024).
# Biological target: T1, human MRGPRX2 (Homo sapiens, UniProt Q96LB1)
# T1 sequence (Q96LB1 1-330): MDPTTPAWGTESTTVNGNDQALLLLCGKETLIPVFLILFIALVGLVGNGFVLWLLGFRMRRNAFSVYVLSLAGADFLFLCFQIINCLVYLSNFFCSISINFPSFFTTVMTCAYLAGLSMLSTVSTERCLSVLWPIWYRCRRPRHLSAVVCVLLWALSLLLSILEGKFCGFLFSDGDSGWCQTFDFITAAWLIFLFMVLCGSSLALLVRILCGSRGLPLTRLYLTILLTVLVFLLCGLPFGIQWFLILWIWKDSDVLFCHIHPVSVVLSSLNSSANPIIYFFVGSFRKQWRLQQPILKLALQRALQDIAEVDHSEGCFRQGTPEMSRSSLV
# Assay: Ca2+ mobilization assay (FLIPR TETRA): inhibition of Cortistatin-14 mediated MRGPRX2 activation
row,SMILES,IC50
1,"C[C@@H](C(=O)Nc1cnc(Oc2c(F)cc(F)cc2F)cn1)N1CCC(F)(F)[C@@H](c2cc[n+]([O-])cc2)C1 [Example 119, 4-((S)-4,4-difluoro-1-((S)-1-oxo-1-((5-(2,4,6-trifluorophenoxy)pyrazin-2-yl)amino)propan-2-yl)piperidin-3-yl)pyridine 1-oxide]",≤ 10 nM
2,"C[C@@H](C(=O)Nc1ccc(Oc2ccc(F)c(F)c2F)cn1)N1CCC(F)(F)[C@@H](c2cc[n+]([O-])cc2)C1 [Example 131, 4-((S)-4,4-difluoro-1-((S)-1-oxo-1-((5-(2,3,4-trifluorophenoxy)pyridin-2-yl)amino)propan-2-yl)piperidin-3-yl)pyridine 1-oxide]",≤ 10 nM
3,"CC(C(=O)Nc1ccc(Br)cn1)N1CCC(F)(F)[C@@H](c2ccc(=O)[nH]c2)C1 (stereo partly drawn) [Example 94, N-(5-bromopyridin-2-yl)-2-((S)-4,4-difluoro-3-(6-oxo-1,6-dihydropyridin-3-yl)piperidin-1-yl)propanamide]",100 to 3160 nM
4,"C[C@@H](C(=O)Nc1ccc(Oc2ccc(F)cc2F)cn1)N1CCC(F)(F)C(c2cc(C(O)C(F)(F)F)c[n+]([O-])c2)C1 (mixture of isomers) [Example 266, 3-(1-(1-((5-(2,4-difluorophenoxy)pyridin-2-yl)amino)-1-oxopropan-2-yl)-4,4-difluoropiperidin-3-yl)-5-(2,2,2-trifluoro-1-hydroxyethyl)pyridine 1-oxide]",10 to 100 nM
5,"CC(C(=O)Nc1ccc2cc(C3CC3)cnc2n1)N1CCC(F)(F)[C@@H](c2ccc(=O)[nH]c2)C1 (stereo partly drawn) [Example 77, N-(6-cyclopropyl-1,8-naphthyridin-2-yl)-2-((S)-4,4-difluoro-3-(6-oxo-1,6-dihydropyridin-3-yl)piperidin-1-yl)propanamide]",100 to 3160 nM
6,"CC(C(=O)Nc1ccc(Oc2ccc(F)cc2F)cn1)N1CCC(F)(F)C(c2ccnc(CN)c2)C1 (mixture of isomers) [Example 264, 2-(3-(2-(aminomethyl)pyridin-4-yl)-4,4-difluoropiperidin-1-yl)-N-(5-(2,4-difluorophenoxy)pyridin-2-yl)propanamide]",≤ 10 nM
7,"C[C@@H](C(=O)Nc1ccc(OCc2ccccc2)cn1)N1CCC(F)(F)[C@@H](c2ccc(=O)[nH]c2)C1 [Example 22, (S)-N-(5-(benzyloxy)pyridin-2-yl)-2-((S)-4,4-difluoro-3-(6-oxo-1,6-dihydropyridin-3-yl)piperidin-1-yl)propanamide]",100 to 3160 nM
8,"CC(C(=O)Nc1cc2cnn(CC3CC3)c2cn1)N1CCC(F)(F)[C@@H](c2ccc(=O)[nH]c2)C1 (stereo partly drawn) [Example 40, N-(1-(cyclopropyl-methyl)-1H-pyrazolo[3,4-c]pyridin-5-yl)-2-((S)-4,4-difluoro-3-(6-oxo-1,6-dihydropyridin-3-yl)piperidin-1-yl)propanamide]",100 to 3160 nM
9,"CC(C(=O)Nc1ncc(Oc2ccc(F)cn2)cc1F)N1CCC(F)(F)[C@@H](c2ccc(=O)[nH]c2)C1 (stereo partly drawn) [Example 91, 2-((S)-4,4-difluoro-3-(6-oxo-1,6-dihydropyridin-3-yl)piperidin-1-yl)-N-(3-fluoro-5-((5-fluoropyridin-2-yl)oxy)pyridin-2-yl)propanamide]",100 to 3160 nM
10,"C[C@@H](C(=O)Nc1ccc(Oc2ccc(F)cc2)cn1)N1CCC(F)(F)[C@@H](c2c[nH]c(=O)c(CS(C)(=O)=O)c2)C1 [Example 214, (S)-2-((S)-4,4-difluoro-3-(5-((methylsulfonyl)methyl)-6-oxo-1,6-dihydropyridin-3-yl)piperidin-1-yl)-N-(5-(4-fluorophenoxy)pyridin-2-yl)propanamide]",≤ 10 nM
11,"CC(C)(C(=O)Nc1ccc(OCC2CC2)cn1)N1CCC(F)(F)[C@@H](c2ccc(=O)[nH]c2)C1 (single isomer, unassigned) [Example 183]",100 to 3160 nM
12,"C[C@@H](C(=O)Nc1ccc(Oc2ccc(F)cc2)cn1)N1CCC(F)(F)[C@@H](c2c[nH]c(=O)c([C@@H](N)C(F)(F)F)c2)C1 (single isomer, unassigned) [Example 234]",≤ 10 nM
13,"C[C@@H](C(=O)Nc1ccc2ccccc2n1)N1CCC(F)(F)[C@@H](c2ccc(=O)[nH]c2)C1 [Example 54, (S)-2-((S)-4,4-difluoro-3-(6-oxo-1,6-dihydropyridin-3-yl)piperidin-1-yl)-N-(quinolin-2-yl)propanamide]",100 to 3160 nM
14,"CC(C(=O)Nc1ccc(Oc2ccc(C#N)cc2)cn1)N1CCC(F)(F)C(c2ccc(=O)[nH]c2)C1 (centres unmarked) [Example 58, N-(5-(4-cyanophenoxy)pyridin-2-yl)-2-(4,4-difluoro-3-(6-oxo-1,6-dihydropyridin-3-yl)piperidin-1-yl)propanamide]",100 to 3160 nM
15,"CC(=O)NCc1cc(C2CN(C(C)C(=O)Nc3ccc(Oc4ccc(F)cc4F)cn3)CCC2(F)F)cc[n+]1[O-] (mixture of isomers) [Example 262, 2-(acetamidomethyl)-4-(1-(1-((5-(2,4-difluorophenoxy)pyridin-2-yl)amino)-1-oxopropan-2-yl)-4,4-difluoropiperidin-3-yl)pyridine 1-oxide]",≤ 10 nM
16,"Cc1cc(C2CN([C@@H](C)C(=O)Nc3ccc(F)cn3)CCC2(F)F)cn(CC(F)(F)F)c1=O (stereo partly drawn) [Example 200, (2S)-2-(4,4-difluoro-3-(5-methyl-6-oxo-1-(2,2,2-trifluoroethyl)-1,6-dihydropyridin-3-yl)piperidin-1-yl)-N-(5-fluoropyridin-2-yl)propanamide]",3160 to 31600 nM
17,"CC(C(=O)Nc1ccc(Oc2ccccc2)cn1)N1CCC(F)(F)C(c2c[nH]c(=O)c(CN)c2)C1 (centres unmarked) [Example 202, 2-(3-(5-(aminomethyl)-6-oxo-1,6-dihydropyridin-3-yl)-4,4-difluoropiperidin-1-yl)-N-(5-phenoxypyridin-2-yl)propanamide]",≤ 10 nM
18,"CC(C(=O)Nc1cc2ccn(CC3CC3)c2cn1)N1CCC(F)(F)[C@@H](c2ccc(=O)[nH]c2)C1 (stereo partly drawn) [Example 51, N-(1-(cyclopropyl-methyl)-1H-pyrrolo[2,3-c]pyridin-5-yl)-2-((S)-4,4-difluoro-3-(6-oxo-1,6-dihydropyridin-3-yl)piperidin-1-yl)propanamide]",100 to 3160 nM
19,"C[C@@H](C(=O)Nc1ccc(Oc2ccccc2)cn1)N1CCC(F)(F)[C@@H](c2ccc(=O)[nH]c2)C1 [Example 6, (S)-2-((S)-4,4-difluoro-3-(6-oxo-1,6-dihydropyridin-3-yl)piperidin-1-yl)-N-(5-phenoxypyridin-2-yl)propanamide]",≤ 10 nM

# Further lines, results first:
row,IC50,SMILES
1,10 to 100 nM,"CC(C(=O)Nc1ccc(F)cn1)N1CCC(F)(F)C(c2ccc(=O)n(Cc3ccncc3)c2)C1 (centres unmarked) [Example 197, 2-(4,4-difluoro-3-(6-oxo-1-(pyridin-4-ylmethyl)-1,6-dihydropyridin-3-yl)piperidin-1-yl)-N-(5-fluoropyridin-2-yl)propanamide]"
2,≤ 10 nM,"C[C@@H](C(=O)Nc1ccc(Oc2ccc(F)cc2)cn1)N1CCC(F)(F)[C@@H](c2c[nH]c(=O)c(C#N)c2)C1 [Example 251, (S)-2-((S)-3-(5-cyano-6-oxo-1,6-dihydropyridin-3-yl)-4,4-difluoropiperidin-1-yl)-N-(5-(4-fluorophenoxy)pyridin-2-yl)propanamide]"
3,10 to 100 nM,C[C@@H](C(=O)Nc1ccc(F)cn1)N1CCC(F)(F)[C@@H](c2cc[n+]([O-])c(CC(F)(F)F)c2)C1 [Example 219]
4,100 to 3160 nM,"C[C@@H](C(=O)Nc1ccc(Cl)cn1)N1CCC[C@@H](c2ccc(=O)[nH]c2)C1 [Example 158, (S)—N-(5-chloropyridin-2-yl)-2-((S)-3-(6-oxo-1,6-dihydropyridin-3-yl)piperidin-1-yl)propanamide]"
5,≤ 10 nM,"C[C@@H](C(=O)Nc1ccc(Oc2ccc(F)cc2F)cn1)[C@H]1CCC[C@@H](c2ccc(=O)[nH]c2)C1 [Example 282, (R)—N-(5-(2,4-difluorophenoxy)pyridin-2-yl)-2-((1S,3R)-3-(6-oxo-1,6-dihydropyridin-3-yl)cyclohexyl)propanamide]"
6,3160 to 31600 nM,"CC(C(=O)Nc1ccc(C(O)c2ccc(F)cc2)cn1)N1CCC(F)(F)[C@@H](c2cc[n+]([O-])cc2)C1 (stereo partly drawn) [Example 129, 4-((3S)-4,4-difluoro-1-(1-((5-((4-fluorophenyl) (hydroxy)methyl)pyridin-2-yl)amino)-1-oxopropan-2-yl)piperidin-3-yl)pyridine 1-oxide]"
7,10 to 100 nM,"C[C@@H](C(=O)Nc1ccc(Oc2ccccn2)cn1)N1CCC(F)(F)[C@@H](c2ccc(=O)[nH]c2)C1 [Example 61, (S)-2-((S)-4,4-difluoro-3-(6-oxo-1,6-dihydropyridin-3-yl)piperidin-1-yl)-N-(5-(pyridin-2-yloxy)pyridin-2-yl)propanamide]"
8,10 to 100 nM,"CC(C(=O)Nc1ncc(Oc2ccc(F)cc2)cc1F)N1CCC(F)(F)[C@@H](c2ccc(=O)[nH]c2)C1 (stereo partly drawn) [Example 86, 2-((S)-4,4-difluoro-3-(6-oxo-1,6-dihydropyridin-3-yl)piperidin-1-yl)-N-(3-fluoro-5-(4-fluorophenoxy)pyridin-2-yl)propanamide]"
9,100 to 3160 nM,"C[C@@H](C(=O)Nc1ccc(OCC2CC2)nn1)N1CCC(F)(F)C(c2c[nH]c(=O)c(CO)c2)C1 (stereo partly drawn) [Example 154, (S)-N-(6-(cyclopropylmethoxy)pyridazin-3-yl)-2-(4,4-difluoro-3-(5-(hydroxymethyl)-6-oxo-1,6-dihydropyridin-3-yl)piperidin-1-yl)propanamide]"
10,≤ 10 nM,"CC(C(=O)Nc1ccc(Oc2ccc(F)cc2)cn1)N1CCC(F)(F)C(c2c[nH]c(=O)c(CNCCO)c2)C1 (centres unmarked) [Example 238, 2-(4,4-difluoro-3-(5-(((2-hydroxyethyl)amino)methyl)-6-oxo-1,6-dihydropyridin-3-yl)piperidin-1-yl)-N-(5-(4-fluorophenoxy)pyridin-2-yl)propanamide]"
